The source of these data is ChEMBL document CHEMBL1201862, “PubChem BioAssay data set” (2004).

Some test systems named below: A549; COLO 205; HCT-116; HT-29; Hs-578T; MDA-MB-435; NCI/ADR-RES; SK-MEL-2; SK-MEL-5; SN12C; SR; SW-620; U-251; UACC-62; UO-31; HOP-92; LOX IMVI; NCI-H23; OVCAR-3; SF-295.
Holding throughout (assay): NCI tumour cell line growth inhibition, 48 h

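96-well plates; 48 h exposure; 5 concentrations. Endpoints by linear interpolation between flanking doses. Not reached: highest tested concentration assigned. GI50 marks 50% less growth.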 Activity calls are given as the source filed them. Cut-off read from the data, not from the text of the source: active = GI50 up to about 1.1 µM and inactive = higher.

On to `Cn1c2ccccc2c(=O)c2c(O)cc3c(c21)C1OCC(C)(O)C1O3` (stereo not given), for which the GI50 with A549 is 61.8 µM (inactive); in the assay on COLO 205 it was 51.1 µM (inactive); in the assay on HCT-116 it was 37.8 µM (inactive); in the assay on HT-29 it was 31.8 µM (inactive); in the assay with Hs-578T, 6.47 µM (inactive); in the assay on MDA-MB-435 it was > 100 µM (inactive). Besides, the GI50 was 42.9 µM (inactive) in the assay with NCI/ADR-RES; 28.3 µM (inactive) in the assay on SK-MEL-2; 50.2 µM (inactive) in the assay on SK-MEL-5; 58.2 µM (inactive) in the assay with SN12C; 46.7 µM (inactive) with SR; 80 µM (inactive) in the assay with SW-620. Also, the GI50 in the assay on U-251 was 21.4 µM (inactive); in the assay with UACC-62 it was > 10 µM (inactive); with UO-31, 5.4 µM (inactive).

For `CC(C)(O)C1COC2=C1C(=O)c1ccccc1C2=O` (stereo not given), the GI50 in the assay on A549 was > 100 µM (inactive); in the assay on COLO 205 it was 82 µM (inactive); in the assay with HCT-116, 25.3 µM (inactive); with HOP-92, 27.5 µM (inactive); in the assay on HT-29 it was 44.4 µM (inactive); in the assay on Hs-578T it was 27 µM (inactive). In addition, the GI50 is 19.2 µM (inactive) with LOX IMVI; 23.3 µM (inactive) in the assay with MDA-MB-435; 18.2 µM (inactive) in the assay on NCI-H23; 19.1 µM (inactive) with NCI/ADR-RES; 24.9 µM (inactive) in the assay with OVCAR-3; 42.5 µM (inactive) in the assay on SF-295. The GI50 in the assay with SK-MEL-2 was 29.7 µM (inactive); in the assay with SK-MEL-5, 22.3 µM (inactive); in the assay with SN12C, 27.8 µM (inactive); in the assay with SW-620, 23 µM (inactive); in the assay on U-251, 58.5 µM (inactive); in the assay on UACC-62 it was 22.9 µM (inactive). In the assay with UO-31, the GI50 was 81.1 µM (inactive).

In the case of `CC(C)(C)[Si](C)(C)OCCOCn1cc(F)c(=O)[nH]c1=O`, the GI50 with A549, in the assay on COLO 205, with HCT-116, with HT-29, in the assay on Hs-578T and in the assay on LOX IMVI was > 100 µM (inactive) in each case. The GI50 in the assay with MDA-MB-435, with NCI-H23, in the assay on NCI/ADR-RES, in the assay on OVCAR-3, in the assay with SF-295 and in the assay with SK-MEL-2 was > 100 µM (inactive) each time. Moreover, the GI50 with SK-MEL-5, in the assay with SN12C, in the assay with SR, in the assay on SW-620, in the assay with U-251 and in the assay on UACC-62 was > 100 µM (inactive) throughout. Moreover, the GI50 in the assay on UO-31 is > 100 µM (inactive).

Turning to `Cc1nc(C(N)=S)sc1C(=O)CC(=O)C(=O)Nc1ccc(Br)cc1`, the GI50 in the assay with A549, in the assay on HCT-116, with HOP-92, in the assay on HT-29, in the assay on Hs-578T and in the assay on LOX IMVI was > 100 µM (inactive) each time. Further, the GI50 in the assay with MDA-MB-435, in the assay with NCI-H23, in the assay on NCI/ADR-RES, with OVCAR-3, in the assay with SF-295 and in the assay on SK-MEL-2 was > 100 µM (inactive) in each case. The GI50 in the assay on SK-MEL-5, with SN12C, with SW-620, in the assay with U-251, in the assay on UACC-62 and in the assay on UO-31 was > 100 µM (inactive) throughout.

Consider `CCN(CC)C(=S)N/N=C/c1cc([N+](=O)[O-])ccc1O`, for which the GI50 was 12.8 µM (inactive) with A549; 3.4 µM (inactive) in the assay on COLO 205; 2.75 µM (inactive) in the assay on HCT-116; 5.45 µM (inactive) in the assay on HT-29; 53.2 µM (inactive) in the assay with Hs-578T; 3.01 µM (inactive) in the assay on LOX IMVI. In addition, the GI50 with MDA-MB-435 was 5.48 µM (inactive); in the assay with NCI-H23, 6.59 µM (inactive); in the assay on NCI/ADR-RES it was 3.01 µM (inactive); in the assay on OVCAR-3 it was 0.0528 µM (active); in the assay on SF-295, 4.56 µM (inactive); in the assay on SK-MEL-2, 16.4 µM (inactive). Moreover, the GI50 is 2.02 µM (inactive) in the assay with SK-MEL-5; 4.88 µM (inactive) in the assay with SN12C; 1.74 µM (inactive) in the assay on SR; 6.35 µM (inactive) in the assay with SW-620; 4.24 µM (inactive) in the assay with U-251; 3.27 µM (inactive) with UACC-62. For the same compound, the GI50 with UO-31 was 3.12 µM (inactive).

For the compound `O=C(Nc1ccc(Cl)c(Cl)c1)OCCN1c2ccccc2Sc2ccccc21`, the GI50 in the assay on A549, in the assay with COLO 205, in the assay with HCT-116, with HOP-92, in the assay on HT-29 and with Hs-578T was > 10 µM (inactive) each time. Also, the GI50 in the assay with LOX IMVI, with MDA-MB-435, in the assay with NCI-H23, with NCI/ADR-RES, in the assay with OVCAR-3 and in the assay on SF-295 was > 10 µM (inactive) in each case. Also, the GI50 in the assay with SK-MEL-5, with SN12C, with SR, in the assay with SW-620, in the assay on U-251 and in the assay on UACC-62 was > 10 µM (inactive) in each case.

As for `O=c1[nH]nc(Cc2ccccc2)n1/N=C/c1cccnc1`, the GI50 with A549, in the assay on COLO 205, in the assay on HCT-116, with HOP-92, in the assay on HT-29 and in the assay with Hs-578T was > 100 µM (inactive) each time. Further, the GI50 with LOX IMVI, in the assay on MDA-MB-435, in the assay with NCI-H23, in the assay on NCI/ADR-RES, in the assay on OVCAR-3 and in the assay with SF-295 was > 100 µM (inactive) each time. In addition, the GI50 in the assay with SK-MEL-5 is > 100 µM (inactive); in the assay with SN12C, > 100 µM (inactive); in the assay with SR, > 100 µM (inactive); in the assay with SW-620 it was > 100 µM (inactive); with U-251 it was > 100 µM (inactive); in the assay on UO-31, 71.6 µM (inactive).

As for `COc1ccc(-c2c(C#N)c(N)nc3c2CCS(=O)(=O)c2ccccc2-3)cc1`, the GI50 with A549 was > 100 µM (inactive); with COLO 205, > 100 µM (inactive); in the assay with HCT-116, > 100 µM (inactive); in the assay on HOP-92 it was > 100 µM (inactive); in the assay on HT-29, > 100 µM (inactive); in the assay on Hs-578T, 37.7 µM (inactive). Also, the GI50 in the assay with LOX IMVI, with MDA-MB-435, with NCI-H23, in the assay on NCI/ADR-RES, in the assay on SK-MEL-2 and in the assay with SK-MEL-5 was > 100 µM (inactive) each time. The GI50 in the assay with SN12C, in the assay on SR, in the assay on SW-620, in the assay on U-251, in the assay on UACC-62 and in the assay on UO-31 was > 100 µM (inactive) throughout.

On to `O=C1/C(=C\c2ccc(Cl)cc2Cl)Sc2scc(-c3ccc(O)c(O)c3)[n+]21`, for which the GI50 is 16.9 µM (inactive) in the assay with A549; 19 µM (inactive) in the assay on COLO 205; 14.5 µM (inactive) in the assay with HCT-116; 7.76 µM (inactive) in the assay with HOP-92; 16.7 µM (inactive) in the assay on HT-29; 27.2 µM (inactive) with Hs-578T. In addition, the GI50 in the assay on LOX IMVI was 16.4 µM (inactive); in the assay with MDA-MB-435, 12.2 µM (inactive); with NCI-H23, 11.6 µM (inactive); in the assay on NCI/ADR-RES it was 15.1 µM (inactive); with OVCAR-3 it was 6.47 µM (inactive); with SF-295, 17.4 µM (inactive). For the same compound, the GI50 in the assay with SK-MEL-2 is 11.5 µM (inactive); in the assay with SK-MEL-5, 7.98 µM (inactive); with SN12C it was 15.9 µM (inactive); in the assay with SW-620, 14 µM (inactive); in the assay on U-251, 11.9 µM (inactive); in the assay on UACC-62 it was 7.36 µM (inactive). Moreover, the GI50 in the assay on UO-31 is 13 µM (inactive).

As for `N/N=C1/C2CN3CCN(C2)CC1(c1ccc([N+](=O)[O-])cc1)C3`, the GI50 with COLO 205 is > 100 µM (inactive); in the assay on HCT-116, > 100 µM (inactive); in the assay on HT-29 it was > 100 µM (inactive); in the assay with Hs-578T, 14.7 µM (inactive); in the assay with LOX IMVI, > 100 µM (inactive); in the assay on MDA-MB-435, > 100 µM (inactive). The GI50 with NCI-H23, in the assay on NCI/ADR-RES, in the assay with OVCAR-3, with SF-295, with SK-MEL-2 and in the assay with SK-MEL-5 was > 100 µM (inactive) in each case. Moreover, the GI50 in the assay with SN12C is > 100 µM (inactive); with SR it was 27.7 µM (inactive); with SW-620, > 100 µM (inactive); in the assay on U-251, > 100 µM (inactive); in the assay on UACC-62, > 100 µM (inactive); in the assay on UO-31, > 100 µM (inactive).

As to `C/C(=N\Nc1nc2ccccc2n1C)c1ccncn1`, the GI50 in the assay on A549 is 0.128 µM (active); in the assay on COLO 205, < 0.01 µM (active); in the assay with HCT-116, < 0.01 µM (active); in the assay on HOP-92, 0.129 µM (active); in the assay on HT-29 it was < 0.0259 µM (active); in the assay on Hs-578T it was 3.1 µM (inactive). Besides, the GI50 in the assay on LOX IMVI is 0.0845 µM (active); in the assay with MDA-MB-435, 0.362 µM (active); with NCI-H23, 0.0402 µM (active); in the assay with NCI/ADR-RES, 0.0395 µM (active); with SF-295 it was 0.476 µM (active); in the assay on SK-MEL-2, 2.52 µM (inactive). Besides, the GI50 in the assay on SK-MEL-5 is 0.102 µM (active); in the assay on SN12C it was 0.0243 µM (active); with SR it was 0.082 µM (active); in the assay on SW-620 it was < 0.018 µM (active); in the assay on U-251, 0.0904 µM (active); in the assay on UACC-62, 0.125 µM (active). Further, the GI50 with UO-31 is 0.0391 µM (active).
